According to ChEMBL document CHEMBL2440076, “New triarylpyrazoles as broad-spectrum anticancer agents: design, synthesis, and biological evaluation” (Eur J Med Chem, 2013):

Assays:
[1] = system: TK-10; assay: Growth inhibition of human TK10 cells assessed as cell growth at 10 uM after 48 hrs by sulforhodamine B assay; format: functional; details: TK-10, 48 h, read-out: Activity
[2] = system: SNB-19; assay: Growth inhibition of human SNB19 cells assessed as cell growth at 10 uM after 48 hrs by sulforhodamine B assay; format: functional; details: SNB-19, 48 h, read-out: Activity
[3] = system: K562; assay: Growth inhibition of human K562 cells assessed as cell growth at 10 uM after 48 hrs by sulforhodamine B assay; format: functional; details: K562, 48 h, read-out: Activity
[4] = system: Malme-3M; assay: Growth inhibition of human MALME-3M cells assessed as cell growth at 10 uM after 48 hrs by sulforhodamine B assay; format: functional; details: read-out: Activity
[5] = system: SK-MEL-2; assay: Growth inhibition of human SK-MEL-2 cells assessed as cell growth at 10 uM after 48 hrs by sulforhodamine B assay; format: functional; details: SK-MEL-2, 48 h, read-out: Activity
[6] = system: MDA-MB-231; assay: Growth inhibition of human MDA-MB-231 cells assessed as cell growth at 10 uM after 48 hrs by sulforhodamine B assay; format: functional; details: MDA-MB-231, 48 h, read-out: Activity
[7] = system: RXF 393; assay: Growth inhibition of human RXF393 cells assessed as cell growth at 10 uM after 48 hrs by sulforhodamine B assay; format: functional; details: RXF 393, 48 h, read-out: Activity
[8] = system: CCRF-CEM; assay: Growth inhibition of human CCRF-CEM cells assessed as cell growth at 10 uM after 48 hrs by sulforhodamine B assay; format: functional; details: read-out: Activity
[9] = system: MDA-MB-468; assay: Growth inhibition of human MDA-MB-468 cells assessed as cell growth at 10 uM after 48 hrs by sulforhodamine B assay; format: functional; details: MDA-MB-468, 48 h, read-out: Activity
[10] = system: HCT-15; assay: Growth inhibition of human HCT15 cells assessed as cell growth at 10 uM after 48 hrs by sulforhodamine B assay; format: functional; details: HCT-15, 48 h, read-out: Activity
[11] = Growth inhibition of human HCC2998 cells assessed as cell growth at 10 uM after 48 hrs by sulforhodamine B assay; format: functional; details: HCC 2998, 48 h, read-out: Activity
[12] = system: NCI-H460; assay: Growth inhibition of human NCI-H460 cells assessed as cell growth at 10 uM after 48 hrs by sulforhodamine B assay; format: functional; details: NCI-H460, 48 h, read-out: Activity
[13] = system: A549; assay: Growth inhibition of human A549/ATCC cells assessed as cell growth at 10 uM after 48 hrs by sulforhodamine B assay; format: functional; details: A549, 48 h, read-out: Activity
[14] = system: IGROV-1; assay: Growth inhibition of human IGROV1 cells assessed as cell growth at 10 uM after 48 hrs by sulforhodamine B assay; format: functional; details: IGROV-1, 48 h, read-out: Activity
[15] = system: HOP-92; assay: Growth inhibition of human HOP92 cells assessed as cell growth at 10 uM after 48 hrs by sulforhodamine B assay; format: functional; details: HOP-92, 48 h, read-out: Activity
[16] = system: T47D; assay: Growth inhibition of human T47D cells after 48 hrs by sulforhodamine B assay; format: functional
[17] = system: MCF7; assay: Growth inhibition of human MCF7 cells after 48 hrs by sulforhodamine B assay; format: functional; details: MCF7, 48 h
[18] = system: MDA-MB-468; assay: Growth inhibition of human MDA-MB-468 cells after 48 hrs by sulforhodamine B assay; format: functional, cell-based; details: MDA-MB-468, 48 h
[19] = system: KM12; assay: Growth inhibition of human KM12 cells after 48 hrs by sulforhodamine B assay; format: functional, cell-based; details: KM12, 48 h
[20] = system: SK-MEL-2; assay: Growth inhibition of human SK-MEL-2 cells after 48 hrs by sulforhodamine B assay; format: functional; details: SK-MEL-2, 48 h
[21] = system: SNB-75; assay: Growth inhibition of human SNB75 cells after 48 hrs by sulforhodamine B assay; format: functional; details: SNB-75, 48 h
[22] = system: SN12C; assay: Growth inhibition of human SN12C cells after 48 hrs by sulforhodamine B assay; format: functional
[23] = Growth inhibition of human Hs 578T cells after 48 hrs by sulforhodamine B assay; format: functional
[24] = system: RPMI-8226; assay: Growth inhibition of human RPMI8226 cells after 48 hrs by sulforhodamine B assay; format: functional, cell-based; details: RPMI-8226, 48 h
[25] = system: OVCAR-3; assay: Growth inhibition of human OVCAR3 cells after 48 hrs by sulforhodamine B assay; format: functional, cell-based; details: OVCAR-3, 48 h
[26] = system: NCI-H322M; assay: Growth inhibition of human NCI-H322M cells after 48 hrs by sulforhodamine B assay; format: functional
[27] = system: NCI-H226; assay: Growth inhibition of human NCI-H226 cells after 48 hrs by sulforhodamine B assay; format: functional; details: NCI-H226, 48 h
[28] = system: LOX IMVI; assay: Growth inhibition of human LOXIMVI cells after 48 hrs by sulforhodamine B assay; format: functional
[29] = system: K562; assay: Growth inhibition of human K562 cells after 48 hrs by sulforhodamine B assay; format: functional; details: K562, 48 h
[30] = system: HL-60(TB); assay: Growth inhibition of human HL-60(TB) cells after 48 hrs by sulforhodamine B assay; format: functional; details: HL-60, 48 h
[31] = system: TK-10; assay: Growth inhibition of human TK10 cells after 48 hrs by sulforhodamine B assay; format: functional; details: TK-10, 48 h
[32] = system: HOP-92; assay: Growth inhibition of human HOP92 cells after 48 hrs by sulforhodamine B assay; format: functional, cell-based; details: HOP-92, 48 h
[33] = system: A549; assay: Growth inhibition of human A549/ATCC cells after 48 hrs by sulforhodamine B assay; format: functional; details: A549, 48 h
[34] = system: DU-145; assay: Growth inhibition of human DU145 cells after 48 hrs by sulforhodamine B assay; format: functional; details: DU-145, 48 h
[35] = read-out: LC50 (the source's name)

Compound: COc1cc(-c2nn(-c3cccc(NC(=O)Nc4ccccc4)c3)cc2-c2ccncc2)ccc1Cl
- growth at 10 µM [1]: 116%
- growth at 10 µM [2]: 89.5%
- growth at 10 µM [3]: 45.4%
- growth at 10 µM [4]: 57.7%
- growth at 10 µM [5]: 77%
- growth at 10 µM [6]: 88%
- growth at 10 µM [7]: 72.8%
- growth at 10 µM [8]: 83.3%
- growth at 10 µM [9]: 83.4%
- growth at 10 µM [10]: 84.5%
- growth at 10 µM [11]: 119%
- growth at 10 µM [12]: 93.7%
- growth at 10 µM [13]: 79.3%
- growth at 10 µM [14]: 86.5%

Compound: COc1cc(-c2nn(-c3cccc(NC(=O)c4ccc(Br)c(C)c4)c3)cc2-c2ccncc2)ccc1Cl
- growth at 10 µM [1]: 91.3%
- growth at 10 µM [2]: 83.6%
- growth at 10 µM [3]: 77.3%
- growth at 10 µM [4]: 52.7%
- growth at 10 µM [5]: 58.2%
- growth at 10 µM [6]: 67%
- growth at 10 µM [7]: 41.7%
- growth at 10 µM [8]: 74.6%
- growth at 10 µM [9]: 83.5%
- growth at 10 µM [10]: 67.8%
- growth at 10 µM [11]: 88.2%
- growth at 10 µM [12]: 80.9%
- growth at 10 µM [13]: 78.3%
- growth at 10 µM [15]: 51.3%
- growth at 10 µM [14]: 76.2%

Compound: O=C(Nc1cccc(-n2cc(-c3ccncc3)c(-c3ccc(Cl)c(O)c3)n2)c1)Nc1ccc(Cl)c(Cl)c1
- GI50 [16]: 1.55 µM
- TGI [16]: 17.9 µM
- CC50 [16, 35]: > 32.5 µM
- growth at 10 µM [1]: 7.15%
- growth at 10 µM [2]: 30.3%
- GI50 [17]: 1.06 µM
- LC50 [17]: > 32.5 µM
- TGI [17]: > 32.5 µM
- growth at 10 µM [3]: 11.4%
- GI50 [18]: 0.729 µM
- IC50 [18]: 0.73 µM
- TGI [18]: 4.25 µM
- CC50 [18, 35]: > 32.5 µM
- GI50 [19]: 1.01 µM
- TGI [19]: 4.47 µM
- CC50 [19, 35]: 26.3 µM
- GI50 [20]: 1.03 µM
- LC50 (50% lethal concentration) [20]: > 32.5 µM
- TGI [20]: 2.64 µM
- growth at 10 µM [4]: 10.3%
- growth at 10 µM [5]: -25.4%
- GI50 [21]: 1.09 µM
- LC50 (lethal concentration, 50% net cell kill) [21]: > 32.5 µM
- TGI [21]: 12.2 µM
- GI50 [22]: 1.31 µM
- TGI [22]: > 32.5 µM
- CC50 [22, 35]: > 32.5 µM
- GI50 [23]: 0.785 µM
- TGI [23]: 3.15 µM
- CC50 [23, 35]: > 32.5 µM
- growth at 10 µM [6]: -0.72%
- GI50 [24]: 1.03 µM
- IC50 [24]: 1.03 µM
- TGI [24]: > 32.5 µM
- CC50 [24, 35]: > 32.5 µM
- growth at 10 µM [7]: 4.46%
- growth at 10 µM [8]: 13.7%
- growth at 10 µM [9]: 2.25%
- GI50 [25]: 1.05 µM
- IC50 [25]: 1.05 µM
- TGI [25]: 3.15 µM
- CC50 [25, 35]: > 32.5 µM
- GI50 [26]: 2.89 µM
- TGI [26]: > 32.5 µM
- CC50 [26, 35]: > 32.5 µM
- GI50 [27]: 1.51 µM
- TGI [27]: > 32.5 µM
- CC50 [27, 35]: > 32.5 µM
- GI50 [28]: 0.939 µM
- LC50 [28]: 15 µM
- TGI [28]: 3.57 µM
- growth at 10 µM [10]: 19.8%
- GI50 [29]: 1.41 µM
- TGI [29]: > 32.5 µM
- CC50 [29, 35]: > 32.5 µM
- GI50 [30]: 0.515 µM
- TGI [30]: > 32.5 µM
- CC50 [30, 35]: > 32.5 µM
- GI50 [31]: 1.91 µM
- TGI [31]: > 32.5 µM
- CC50 [31, 35]: > 32.5 µM
- growth at 10 µM [12]: 6.5%
- GI50 [32]: 0.679 µM
- IC50 [32]: 0.68 µM
- LC50 [32]: > 32.5 µM
- TGI [32]: 1.91 µM
- GI50 [33]: 1.01 µM
- LC50 (concentration killing 50% of starting cells) [33]: > 32.5 µM
- TGI [33]: > 32.5 µM
- GI50 [34]: 1.5 µM
- LC50 [34]: > 32.5 µM
- TGI [34]: > 32.5 µM
- growth at 10 µM [13]: 4.51%
- growth at 10 µM [15]: -20.2%
- growth at 10 µM [14]: 28.7%
